Results from patent US8834635B2, “Degreasing compositions derived from levulinic acid (a compound obtainable from biomass) and process for degreasing metal surfaces” (Institut Univ. de Ciencia Tecnologia, S.A., priority 2011, dated 2014).
≈ marks a conversion by molar mass, not a printed value.

Tests used:
[1] = Removal efficacy test, solvent immersion followed by rinsing with water; conditions: for Removal Efficacy normalized to trichloroethylene: Cereous preservative, water rinsing
Source text: (§1) For our evaluation, a comparative method was used in which removal efficacy (RE) of several alternative solvents are compared with RE value obtained for the industrial standard degreaser, trichloroethylene.
(§2) The removal Efficacy (RE) measures in percentage (%) the degree of removal of organic materials (metal protector and/or solvent) from the surface of metal parts. The removal efficacy test, the grease of ten metallic greased pieces was removed by degreasing process. The standard procedure is carried out by bringing the solvent into contact with ten metal pieces which were previously treated with the metal protector. The metal parts are immersed in the solvent without shaking during 10 minutes in one volume of fresh solvent followed by three consecutive washing cycles by immersion in clean water. The amount of organic material (grease and/or solvent) that was not eliminated by the assayed procedure was determined by direct weight after removal of organic residues from the metallic parts by standard cleaning procedure with trichloroethylene.
Preservative B is a cereous-based preservative.
(§3) The degreasing efficacy of the LAOC solvent family was studied. These experiments remove the grease of ten greased pieces according to the procedure described before. This experiment was carried out for two different greases and the obtained results are described in table 2.

[2] = Fish acute toxicity; conditions: fish, in vivo; read-out: Fish acute toxicity, experimental, LC50
[3] = tested on: Fish; assay: Fish acute toxicity; conditions: in vivo
[4] = Removal efficacy test, solvent immersion followed by rinsing with water; conditions: for Removal Efficacy normalized to trichloroethylene: Solvent-based preservative, water rinsing
Source text: as §1, §2
Preservative A is a solvent-based preservative Aromatic hydrocarbons are often used in preservative formulations.
as §3

[5] = Cytotoxicity, in vitro NRU; format: cell-based; conditions: read-out: Cytotoxicity, in vitro NRU, IC50 (mg/mL). Experimental.
[6] = classified by many health authorities, R45 risk phrase; cited from earlier work
[7] = Surface degreasing of metal parts followed by solvent evaporation
[8] = Reusability of solvent without prior purification
Method: as §2
The recovery and reusability of solvents is critical in order to have an economically viable process. The reusability of butyl levulinate (LAOC-4) has been studied for both preservatives. The methodology involved the recovery and reuse of the solvent several times without any prior purification.

Row | Compound | Removal Efficacy normalized to trichloroethylene [1] [%] | LC50 [2] [µg/mL] | Ecotoxicity rating (fish acute toxicity and ready biodegradability) [3] | Removal Efficacy normalized to trichloroethylene [4] [%] | IC50 [5] [mg/mL] | further results
1 | CCCCCCOC(=O)CCC(C)=O [LAOC-6, Hexyl levulinate] | 56.0 | – | – | – | – | –
2 | CCCCCOC(=O)CCC(C)=O [LAOC-5, Pentyl levulinate] | 89.3 | < 100 | Low ecotox. | 37.7 | 16.6 (≈ 89.1 mM) | –
3 | CCCOC(=O)CCC(C)=O [LAOC-3, Propyl levulinate] | 81.7 | – | – | 79.6 | – | –
4 | CC(=O)CCC(=O)OCC(C)C [LAOC-4i, iso-butyl levulinate] | 96.4 | < 100 | Low ecotox. | 87.8 | 4.4 (≈ 25.5 mM) | –
5 | ClC=C(Cl)Cl [Trichloroethylene, reference compound] | 100.0 | – | – | 100.0 | – | RE (%) Removal Efficacy ([1]; Preservative B (cereous-based), immersion 10 minutes, three water washing cycles): 98.1%; RE (%) Removal Efficacy ([4]; Preservative A (solvent-based), immersion 10 minutes, three water washing cycles): 94.2%; removal efficacy (RE) ([4]; depending on the nature of the preservative (both preservatives A and B)): 94-98%; carcinogen classification [6]: probable carcinogen; Removal efficacy (%) ([7]; Immersion, 20° C., 3 min, evaporation 3 min at 20° C.): 100%
6 | CC(=O)CCC(=O)OC(C)C [LAOC-3i, iso-propyl levulinate] | 87.0 | – | – | – | – | –
7 | CCOC(=O)CCC(C)=O [LAOC-2, Ethyl levulinate] | 70.9 | – | – | 53.0 | – | –
8 | CCCCCCCCOC(=O)CCC(C)=O [LAOC-8, Octyl levulinate] | 61.0 | – | – | – | – | –
9 | CCCCOC(=O)CCC(C)=O [LAOC-4, Butyl levulinate] | 99.9 | < 100 | Low ecotox. | 79.0 | 5.7 (≈ 33.1 mM) | Reusability (values normalized to trichloroethylene = 100) ([8]; Cereous preservative, number of cycles 1): 98.0; Reusability (values normalized to trichloroethylene = 100) ([8]; Cereous preservative, number of cycles 2): 93.2; Reusability (values normalized to trichloroethylene = 100) ([8]; Cereous preservative, number of cycles 4): 93.4; Reusability (values normalized to trichloroethylene = 100) ([8]; Cereous preservative, number of cycles 7): 85.9; Reusability (values normalized to trichloroethylene = 100) ([8]; Cereous preservative, number of cycles 10): 84.6; Reusability (values normalized to trichloroethylene = 100) ([8]; Solvent based preservative, number of cycles 1): 74.4; Reusability (values normalized to trichloroethylene = 100) ([8]; Solvent based preservative, number of cycles 2): 78.2; Reusability (values normalized to trichloroethylene = 100) ([8]; Solvent based preservative, number of cycles 4): 62.2; Reusability (values normalized to trichloroethylene = 100) ([8]; Solvent based preservative, number of cycles 7): 69.7; Removal efficacy (%) ([7]; Ultrasound, 41° C., 10 min, evaporation 23 s at 117° C.): 100%
